The record followed here is ChEMBL document CHEMBL4706505, “F10, a new camptothecin derivative, was identified as a new orally-bioavailable, potent antitumor agent” (Eur J Med Chem, 2020).

Molecules are shown by their SMILES. Activity calls are given as the source filed them. The calls are words filed in the database; no cut-off is given here.

One data set concerns COLO 205. The experiment in a line: Cytotoxicity against human COLO 205 assessed as reduction in cell viability measured after 72 hrs by MTT assay. To be noted: COLO 205, 72 h. The class given is functional, cell-based. (In general: Tetrazolium dyes change colour on reduction, which living cells bring about.)
A further data set relates to A549. The experiment in a line: Cytotoxicity against human A549 assessed as reduction in cell viability measured after 72 hrs by MTT assay. The class given is functional, cell-based. Particulars: A549, 72 h.
The subject of another data set is NCI-H1975. The experiment in a line: Cytotoxicity against human NCI-H1975 assessed as reduction in cell viability measured after 72 hrs by MTT assay. The class given is functional, cell-based. Particulars: NCI-H1975, 72 h.
Another data set has as its system HeLa. The experiment in a line: Cytotoxicity against human Hela assessed as reduction in cell viability measured after 72 hrs by MTT assay. Type of data set: functional, cell-based.
A further data set concerns LoVo. The experiment in a line: Cytotoxicity against human LoVo assessed as reduction in cell viability measured after 72 hrs by MTT assay. The class given is functional, cell-based.
Data set [1] concerns HCT-116. The experiment in a line: Cytotoxicity against human HCT-116 assessed as reduction in cell viability measured after 72 hrs by MTT assay. Type of data set: functional, cell-based. To be noted: HCT-116, 72 h.
For data set [2], the system named is HCT-116. The experiment in a line: Induction of apoptosis in human HCT-116 cells assessed as late apoptotic cells level at 0.001 uM incubated for 24 hrs by Annexin V-FITC/PI staining based flow cytometry (reference value: 0.07%). Type of data set: functional. On the technique in general: Flow cytometry measures light scatter and fluorescence of single cells or particles in a stream.

Data set [3] is described as follows: Solubility of compound in phosphate buffer at pH 4.5 incubated for 24 hrs under shaking condition by HPLC analysis. The class given is physicochemical.
Data set [4] in a line: Solubility of compound in phosphate buffer at pH 7.4 incubated for 24 hrs under shaking condition by HPLC analysis. The class given is physicochemical.
For data set [5], the system named is HCT-116. The experiment in a line: Induction of apoptosis in human HCT-116 cells assessed as early apoptotic cells level at 0.03 uM incubated for 24 hrs by Annexin V-FITC/PI staining based flow cytometry (reference value: 0.17%). The class given is functional.
For data set [6], the system named is HCT-116. The experiment in a line: Induction of apoptosis in human HCT-116 cells assessed as early apoptotic cells level at 0.001 uM incubated for 24 hrs by Annexin V-FITC/PI staining based flow cytometry (reference value: 0.17%). The class given is functional.
Data set [7] deals with HCT-116. The experiment in a line: Induction of apoptosis in human HCT-116 cells assessed as late apoptotic cells level at 1 uM incubated for 24 hrs by Annexin V-FITC/PI staining based flow cytometry (reference value: 0.07%). The class given is functional.
The subject of data set [8] is Raji. The experiment in a line: Cytotoxicity against human Raji assessed as reduction in cell viability measured after 72 hrs by MTT assay. The class given is functional, cell-based.
For data set [9], the system named is HCT-116. The experiment in a line: Inhibition of colony formation in human HCT-116 cells at 1 nM incubated for 12 days by crystal violet dye based assay. The class given is functional, cell-based. Particulars: time 12.0 day.
Data set [10] can be described thus: Solubility of compound in water incubated for 24 hrs under shaking condition by HPLC analysis. The class given is physicochemical.
The test system of data set [11] is HCT-116. The experiment in a line: Induction of apoptosis in human HCT-116 cells assessed as early apoptotic cells level at 1 uM incubated for 24 hrs by Annexin V-FITC/PI staining based flow cytometry (reference value: 0.17%). Type of data set: functional.
Data set [12] concerns HCT-116. The experiment in a line: Induction of apoptosis in human HCT-116 cells assessed as late apoptotic cells level at 0.03 uM incubated for 24 hrs by Annexin V-FITC/PI staining based flow cytometry (reference value: 0.07%). The class given is functional.
Data set [13] can be described thus: Toxicity in nude BALB/c mouse xenografted with human HCT-116 cells assessed as reduction in body weight at 20 mg/kg, po dosed once the every 2 day for upto 24 days. The class given is organism-based. Particulars: in vivo, time <=24 day.
Data set [14] has as its system Raji. The experiment in a line: Antitumor activity against NPG mouse xenografted with human Raji cell assessed as tumor growth inhibition at 5 mg/kg, ip measured after 5 day. The class given is functional. To be noted: 120 h, read-out: TGI. On the technique in general: A xenograft is tissue or cells of one species grown in another, often human tumour cells in immunodeficient mice.

The nature of data set [15]: Toxicity in NPG mouse xenografted with human Raji cells assessed as body weight loss at 5 mg/kg, ip measured after 5 day. Particulars: in vivo, 120 h. Type of data set: organism-based.
Data set [16] in a line: Toxicity in NPG mouse xenografted with human Raji cells assessed as body weight loss at 5 mg/kg, ip measured on the 1 day. The class given is organism-based. Particulars: in vivo, 24 h.

Turning to `CC[C@@]1(O)C(=O)OCc2c1cc1n(c2=O)Cc2cc3cc(OCC(=O)N4CCC(N(C)C)CC4)ccc3nc2-1`, the IC50 in the data set on COLO 205, in the data set with A549, in the data set with NCI-H1975, with HeLa, with LoVo and in the data set on HCT-116 [1] was above 10000 nM throughout.

With `CC[C@@]1(O)C(=O)OCc2c1cc1n(c2=O)Cc2cc3cc(OCC(=O)N4CCN(C)CC4)ccc3nc2-1`, the half-inhibitory concentration (IC50) in the data set on COLO 205 was above 10000 nM; in the data set with A549 it was above 10000 nM; in the data set with NCI-H1975 it was above 10000 nM; in the data set with HeLa, 2570 nM; with LoVo, above 10000 nM; with HCT-116 [1], above 10000 nM.

Regarding `CCN(CC)C(=O)COc1ccc2nc3c(cc2c1)Cn1c-3cc2c(c1=O)COC(=O)[C@]2(O)CC`, the IC50 was determined as 1520 nM in the data set with COLO 205; 261 nM with A549; 1960 nM with NCI-H1975; 1010 nM in the data set on HeLa; 933 nM with LoVo; 101 nM in the data set on HCT-116 [1].

Regarding `CCc1c2c(nc3ccc(O)cc13)-c1cc3c(c(=O)n1C2)COC(=O)[C@]3(O)CC` [7-ETHYL-10-HYDROXYCAMPTOTHECIN], the Activity came to 2.81% in the data set on HCT-116 [2]; 3.11% with HCT-116 [5]; 2.91% in the data set with HCT-116 [6]; 7.12% in the data set on HCT-116 [7]; 24.42% with HCT-116 [11]; 8.29% in the data set with HCT-116 [12]. The thermodynamic solubility at 24 h in data set [3], in [4] and in data set [10] was below 0.25 µg/mL each time. Besides, the IC50 was found to be 220 nM in the data set on COLO 205; 18 nM in the data set with A549; 810 nM in the data set on NCI-H1975; 145 nM in the data set with HeLa; 5 nM in the data set on Raji [8]; 301 nM with LoVo. In addition, the IC50 with HCT-116 [1] was determined as 10 nM. In the data set on HCT-116 [9], the inhibition result was “Active”.

Consider `CC[C@@]1(O)C(=O)OCc2c1cc1n(c2=O)Cc2cc3cc(OCC(=O)N4CCCC4)ccc3nc2-1`, for which the IC50 with COLO 205 was found to be 2830 nM; in the data set on A549, 80 nM; in the data set on NCI-H1975 it was 2810 nM; in the data set with HeLa it was 1370 nM; in the data set with LoVo, 880 nM; in the data set with HCT-116 [1], 81 nM.

Turning to `CCN(CC)CCNC(=O)COc1ccc2nc3c(cc2c1)Cn1c-3cc2c(c1=O)COC(=O)[C@]2(O)CC`, the IC50 in the data set with COLO 205, in the data set on A549, in the data set with NCI-H1975, in the data set on HeLa, in the data set on LoVo and with HCT-116 [1] was above 10000 nM each time.

Take `CC[C@@]1(O)C(=O)OCc2c1cc1n(c2=O)Cc2cc3cc(OCC(=O)N(C)CCN(C)C)ccc3nc2-1`: the IC50 in the data set on COLO 205, in the data set with A549, with NCI-H1975, in the data set on HeLa, in the data set on LoVo and in the data set on HCT-116 [1] was above 10000 nM each time.

Regarding `CC[C@@]1(O)C(=O)OCc2c1cc1n(c2=O)Cc2cc3cc(OCC(=O)N4CCCCC4)ccc3nc2-1`, the IC50 in the data set with COLO 205 came out at 540 nM; in the data set on A549, 55 nM; in the data set on NCI-H1975, 1380 nM; with HeLa, 380 nM; in the data set with LoVo, 272 nM; in the data set on HCT-116 [1] it was 17 nM.

As to `CCc1c2c(nc3ccc(OCC(=O)N4CCCC4)cc13)-c1cc3c(c(=O)n1C2)COC(=O)[C@]3(O)CC`, the IC50 in the data set on COLO 205 turned out to be 250 nM; in the data set with A549 it was 37 nM; with NCI-H1975, 630 nM; in the data set with HeLa it was 350 nM; with Raji [8], 6 nM; with LoVo it was 181 nM. Further, in the data set on HCT-116 [1], the IC50 came out at 12 nM.

Take `CCc1c2c(nc3ccc(OC(=O)N4CCC(N5CCCCC5)CC4)cc13)-c1cc3c(c(=O)n1C2)COC(=O)[C@]3(O)CC.Cl`: the Activity result in data set [13] is “Toxic”; in data set [15] it was 23.5 g; in [16], 24.2 g. Further, in the data set with Raji [14], the inhibition in vivo at 5 mg/kg came out at 7.1%.

Take `CC[C@@]1(O)C(=O)OCc2c1cc1n(c2=O)Cc2cc3cc(OCC(=O)NCCN(C)C)ccc3nc2-1`: the IC50 in the data set on COLO 205, with A549, with NCI-H1975, with HeLa, with LoVo and with HCT-116 [1] was above 10000 nM throughout.

As to `CC[C@@]1(O)C(=O)OCc2c1cc1n(c2=O)Cc2cc3cc(O)ccc3nc2-1` [HYDROXYCAMPTOTHECIN], the IC50 in the data set on A549 turned out to be 80 nM; in the data set with LoVo, 330 nM; with HCT-116 [1], 21 nM.

Usually IC50 stands for the midpoint of a concentration-inhibition curve. By solubility (thermodynamic) is commonly meant solubility found after equilibrating the solid with the medium.
